Where two headings read alike, the source gives them in different places.
Assay: logP by HPLC on reversed-phase column (EEC Directive 79/831 Annex V.A8)
Type: physicochemical
Conditions: for chromatographic logP: reversed-phase HPLC column (C18)
Experimental: Temperature: 40° C.; Mobile phases: 0.1% aqueous formic acid and acetonitrile; linear gradient from 10% acetonitrile to 90% acetonitrile.
Calibration was carried out using unbranched alkan-2-ones (comprising 3 to 16 carbon atoms) with known logP values (determination of the logP values by the retention times using linear interpolation between two successive alkanones).

[1] = HPLC, C18, 40° C., 0.1% aqueous formic acid and acetonitrile
[2] = pH 2.3, read-out: log P (pH 2.3)

SMILES	log P [1]	also measured
Cc1cc(OCc2ccc3nsnc3c2)c(C)cc1N=CN1CCCCC1 [Compound 128]	1.99	
CCN(C)C=Nc1cc(C)c(CCc2ccccc2C(F)(F)F)cc1C [Compound 45]	2.42	
CCN(C)C=Nc1cc(C)c(OCc2ccc3c(c2)CCCC3)cc1C [Compound 75]	2.55	
COc1cc(Cl)c(COc2cc(C)c(N=CN3CCCCC3)cc2C)cc1OC [Compound 102]	2.09	
Cc1cc(OCc2ccc(F)c(F)c2)c(C)cc1N=CN1CCCCC1 [Compound 110]	2.13	
CCN(C)C=Nc1cc(C)c(CCc2cccc(C(F)(F)F)c2)cc1C [Compound 43]	2.41	
CCN(C)C=Nc1cc(C)c(OCc2ccccc2I)cc1C [Compound 87]	2.29	
Cc1cc(OCc2cc(Cl)cc(Cl)c2)c(C)cc1N=CN1CCCCC1 [Compound 90]	2.51	
COc1cc(COc2cc(C)c(N=CN3CCCCC3)cc2C)ccc1F [Compound 121]	2.06	
CCN(C)C=Nc1cc(C)c(OCc2ccccc2Br)cc1C [Compound 67]	2.13	
CCN(C)C=Nc1cc(C)c(OCc2cccc(C#N)c2)cc1C [Compound 74]	1.83	
Cc1cc(OCc2ccc(OC(F)F)cc2)c(C)cc1N=CN1CCCCC1 [Compound 125]	2.16	
CCN(C)C=Nc1cc(C)c(CCc2ccc(OC)cc2)cc1C [Compound 39]	2.04	
Cc1cc(OCc2ccc(C(F)(F)F)cc2)c(C)cc1N=CN1CCCCC1 [Compound 126]	2.58	
CCN(C)C=Nc1cc(C)c(OCc2cccc(OC(F)(F)F)c2)cc1C [Compound 17]	2.33	
CCN(C)C=Nc1cc(C)c(CCc2ccc(C)cc2)cc1C [Compound 41]	2.23	
Cc1cc(OCc2ccc(Cl)c(C(F)(F)F)c2)c(C)cc1N=CN1CCCCC1 [Compound 129]	2.51	
CCN(C)/C=N/c1cc(C)c(I)cc1C [Intermediate (V-1), N′-(4-iodo-2,5-dimethylphenyl)-N-ethyl-N-methylimidoformamide]		chromatographic logP [2]: 1.21
C=Cc1cccc(COc2cc(C)c(N=CN(C)CC)cc2C)c1 [Compound 50]	2.16	
CCN(C)C=Nc1cc(C)c(OCc2cc3c(cc2Cl)OCO3)cc1C [Compound 5]	2.05	
Cc1cc(OCc2ccc(F)cc2)c(C)cc1N=CN1CCCCC1 [Compound 104]	2.09	
CCN(C)C=Nc1cc(C)c(OCc2cc(C)cc(C)c2)cc1C [Compound 60]	2.26	
CCN(C)C=Nc1cc(C)c(OCc2ccc(F)c(OC)c2)cc1C [Compound 22]	1.92	
CCN(C)C=Nc1cc(C)c(OCc2ccc(C#N)cc2)cc1C [Compound 10]	1.7	
CCN(C)C=Nc1cc(C)c(OCc2ccc(F)cc2)cc1C [Compound 2]	1.99	
Cc1cc(OCc2ccccc2OC(F)F)c(C)cc1N=CN1CCCCC1 [Compound 127]	2.13	

SMILES	log P [1]	also measured
CCN(C)C=Nc1cc(C)c(OCc2cccc3ccccc23)cc1C [Compound 76]	2.45	
Cc1cc(OCc2ccc(Cl)cc2C(F)(F)F)c(C)cc1N=CN1CCCCC1 [Compound 116]	2.55	
Cc1ccc(COc2cc(C)c(N=CN3CCCCC3)cc2C)cc1C [Compound 108]	2.36	
CCN(C)C=Nc1cc(C)c(OCc2ccc(OC)cc2)cc1C [Compound 78]	1.92	
CCN(C)/C=N/c1cc(C)c(CCc2ccccc2F)cc1C [Compound 44, N-ethyl-N′-{4-[2-(2-fluorophenyl)ethyl]-2,5-dimethylphenyl}-N-methylimidoformamide]		chromatographic logP [2]: 2.23; chromatographic logP (HPLC, C18, 40° C., 0.1% aqueous formic acid and acetonitrile, read-out: log P): 2.23
Cc1cc(OC(C)c2ccc(Cl)cc2)c(C)cc1N=CN1CCCCC1 (racemic) [Compound 132]	2.36	
Cc1cc(OCc2cc(F)ccc2F)c(C)cc1N=CN1CCCCC1 [Compound 97]	2.09	
Cc1ccc(COc2cc(C)c(N=CN3CCCCC3)cc2C)cc1Cl [Compound 117]	2.39	
CCN(C)/C=N/c1cc(C)c(/C=C/c2ccccc2F)cc1C (racemic) [Intermediate (VII-1)]		chromatographic logP [2]: 2.11
Cc1cc(OCc2cc(C(F)(F)F)ccc2Cl)c(C)cc1N=CN1CCCCC1 [Compound 119]	2.58	
CCN(C)C=Nc1cc(C)c(OCc2cccc(OC)c2)cc1C [Compound 81]	1.97	
Cc1cc(OCc2ccc(C(C)(C)C)cc2)c(C)cc1N=CN1CCCCC1 [Compound 95]	2.64	
CON=Cc1ccc(COc2cc(C)c(N=CN3CCCCC3)cc2C)cc1 [Compound 103]	2.21	
Cc1cc(OCc2ccc(SC(F)(F)F)cc2)c(C)cc1N=CN1CCCCC1 [Compound 115]	2.55	
CCN(C)C=Nc1cc(C)c(CCc2ccccc2C)cc1C [Compound 38]	2.38	
Cc1cc(OCc2cccc(C#N)c2)c(C)cc1N=CN1CCCCC1 [Compound 120]	1.9	
Cc1cc(OCc2ccc(C#N)cc2)c(C)cc1N=CN1CCCCC1 [Compound 98]	1.94	
CCN(C)C=Nc1cc(C)c(OCc2cccc(C(=O)OC(C)(C)C)c2)cc1C [Compound 54]	2.42	
CCN(C)C=Nc1cc(C)c(OCc2c(C)cc(C)cc2C)cc1C [Compound 86]	2.42	
Cc1cc(OCc2ccccc2SC(F)(F)F)c(C)cc1N=CN1CCCCC1 [Compound 112]	2.48	
CCN(C)C=Nc1cc(C)c(OCc2cc(C(F)(F)F)cc(C(F)(F)F)c2)cc1C [Compound 21]	2.62	
CCN(C)C=Nc1cc(C)c(OCc2ccc(OC(F)(F)F)cc2)cc1C [Compound 23]	2.38	
Cc1cc(OCc2ccc(OC(F)(F)F)cc2)c(C)cc1N=CN1CCCCC1 [Compound 122]	2.42	
CCN(C)C=Nc1cc(C)c(OCc2cccc3nsnc23)cc1C [Compound 51]	1.92	
CCN(C)C=Nc1cc(C)c(OCc2ccc(Br)cc2)cc1C [Compound 70]	2.21	
CCN(C)C=Nc1cc(C)c(OCc2cccc(C)c2Cl)cc1C [Compound 71]	2.29	

SMILES	log P [1]	also measured
Cc1cc(OC(C)c2cccc(Cl)c2)c(C)cc1N=CN1CCCCC1 (racemic) [Compound 131]	2.36	
Cc1cc(OCc2c(F)cccc2Cl)c(C)cc1N=CN1CCCCC1 [Compound 101]	2.16	
CCN(C)C=Nc1cc(C)c(OCc2ccc(C(C)(C)C)cc2)cc1C [Compound 8]	2.67	
Cc1cc(OCc2cc(Cl)cc(C(F)(F)F)c2)c(C)cc1N=CN1CCCCC1 [Compound 118]	2.61	
CCN(C)C=Nc1cc(C)c(OCc2ccc(C)cc2)cc1C [Compound 32]	2.1	
CCN(C)C=Nc1cc(C)c(OCc2c(F)cccc2F)cc1C [Compound 48]	1.94	
CCN(C)C=Nc1cc(C)c(OCc2ccc(F)c(F)c2)cc1C [Compound 15]	2.02	
Cc1ccc(COc2cc(C)c(N=CN3CCCCC3)cc2C)cc1 [Compound 124]	2.23	
CCN(C)C=Nc1cc(C)c(OCc2cccc(C)c2)cc1C [Compound 57]	2.11	
CCN(C)C=Nc1cc(C)c(OCc2ccc(SC)cc2)cc1C [Compound 84]	2.16	
CCN(C)C=Nc1cc(C)c(OCc2ccccc2C)cc1C [Compound 66]	2.06	
Cc1cc(OCc2cccc(C(F)(F)F)c2)c(C)cc1N=CN1CCCCC1 [Compound 96]	2.29	
Cc1cc(OCc2ccc(Cl)c(Cl)c2)c(C)cc1N=CN1CCCCC1 [Compound 107]	2.45	
Cc1cc(OCc2cccc(Cl)c2)c(C)cc1N=CN1CCCCC1 [Compound 94]	2.21	
Cc1cc(OCc2ccc(Cl)cc2)c(C)cc1N=CN1CCCCC1 [Compound 105]	2.26	
CCN(C)C=Nc1cc(C)c(OCc2ccc3nsnc3c2)cc1C [Compound 27]	1.86	
Cc1cc(OC(C)c2ccc(F)cc2)c(C)cc1N=CN1CCCCC1 (racemic) [Compound 93]	2.18	
CCN(C)C=Nc1cc(C)c(OCc2ccccc2C#N)cc1C [Compound 58]	1.78	
CCN(C)C=Nc1cc(C)c(OCc2ccc(SC(F)(F)F)cc2)cc1C [Compound 83]	2.61	
CCN(C)C=Nc1cc(C)c(OCc2ccccc2C(F)(F)F)cc1C [Compound 34]	2.14	
CCN(C)C=Nc1cc(C)c(OCc2ccccc2F)cc1C [Compound 11]	1.94	
Cc1cc(OCc2cc3c(cc2Cl)OCO3)c(C)cc1N=CN1CCCCC1 [Compound 92]	2.16	
Cc1cc(OC(C)c2ccccc2Cl)c(C)cc1N=CN1CCCCC1 (racemic) [Compound 130]	2.36	
CCN(C)C=Nc1cc(C)c(OCc2cccc(C)c2F)cc1C [Compound 77]	2.16	
CCN(C)C=Nc1cc(C)c(CCc2ccc(C(F)(F)F)cc2)cc1C [Compound 46]	2.45	
